The numbers were not newly measured in patent publication US20060287301A1, “Novel formulations for phenothiazines, including fluphenazine and its derivatives” (priority 2005, published 2006), which cites them from elsewhere.

Where a name gives a salt, the structure may show the parent alone. Read-outs that look alike come from different tables or passages of the source.

For this series the following is noted: words only.

As to `OCCN1CCN(CCCN2c3ccccc3Sc3ccc(C(F)(F)F)cc32)CC1` [Fluphenazine HCl], the solubility in water entry (HCl) is on record as “poorly soluble”. On to `OCCN1CCN(CCCN2c3ccccc3Sc3ccc(C(F)(F)F)cc32)CC1` [Fluphenazine, fluphenazine], for which the solubility in water result is “marginally water soluble”.
